The supplement of paper PMC10307832

Legend:
Experiment in all cases: relative viability (nuclei count vs DMSO), 5 days (fraction); higher = more cells survive
[1] = compound: O=C(/C=C/c1ccccc1)NC(NC(=S)Nc1cccc2cccnc12)C(Cl)(Cl)Cl [Salubrinal] + COc1cccc2cc(-c3nc([C@H]4CC[C@H](C(=O)O)CC4)n4ncnc(N)c34)[nH]c12 [OSI-027] (partner 0.5 µM)
Summary of the method: (§1)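 Lung cancer cell lines, seeded in 1536-well plates, were treated the following day by pin tool with a single drug or with five library-drug doses (not always all listed) in √10 steps on top of a fixed anchor-drug dose. Cells were fixed and nuclei stained in one step after 5 days, and nuclei were counted. Relative viability is the nuclei count for treated wells divided by that for vehicle wells, reported as medians of duplicate plates.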

[2] = compound: Cc1ccc2nc(NCCN)c3ncc(C)n3c2c1 + CCNC(=O)c1noc(-c2cc(C(C)C)c(O)cc2O)c1-c1ccc(CN2CCOCC2)cc1 [Luminespib] (partner 0.01 µM)
Summary of the method: as §1

[3] = compound: O=C(/C=C/c1ccccc1)NC(NC(=S)Nc1cccc2cccnc12)C(Cl)(Cl)Cl [Salubrinal] + CC(=O)c1c(C)c2cnc(Nc3ccc(N4CCNCC4)cn3)nc2n(C2CCCC2)c1=O [Palbociclib] (partner 0.5 µM)
Summary of the method: as §1

[4] = compound: O=C(/C=C/c1ccccc1)NC(NC(=S)Nc1cccc2cccnc12)C(Cl)(Cl)Cl [Salubrinal] + O=C(CCCCCCC(=O)Nc1ccccc1)NO [Vorinostat] (partner 1 µM)
Summary of the method: as §1

With UMC-11 the relative viability ([1]; first compound 0.08 µM) was 0.498, the relative viability ([1]; first compound 0.253 µM) was 0.399 and the relative viability ([1]; first compound 0.8 µM) was 0.548. The relative viability ([1]; first compound 2.53 µM) was 0.46, the relative viability ([1]; first compound 8 µM) was 0.455 and the relative viability ([2]; first compound 0.04 µM) was 1.02. The relative viability ([2]; first compound 0.1265 µM) was 0.834, the relative viability ([2]; first compound 0.4 µM) was 1 and the relative viability ([2]; first compound 1.265 µM) was 0.996. For the same cell line, the relative viability ([2]; first compound 4 µM) was 0.894, the relative viability ([3]; first compound 0.08 µM) was 0.304 and the relative viability ([3]; first compound 0.253 µM) was 0.344. It also gave a relative viability ([3]; first compound 0.8 µM) of 0.349, a relative viability ([3]; first compound 2.53 µM) of 0.313 and a relative viability ([3]; first compound 8 µM) of 0.299. For the same cell line, the relative viability ([4]; first compound 0.08 µM) was 0.349, the relative viability ([4]; first compound 0.253 µM) was 0.404 and the relative viability ([4]; first compound 0.8 µM) was 0.38. It also gave a relative viability ([4]; first compound 2.53 µM) of 0.334 and a relative viability ([4]; first compound 8 µM) of 0.398.
